Tests used:
KRAS(G12D) = KRAS(G12D) (Homo sapiens, UniProt P01116, G12D); test: cell-based; assay type: cell-based; parameters: Cell lines SW1990 and GP2D that express KRAS(G12D); host or cells: SW1990; conditions: SW1990, read-out: WB data SW1990 DMax
Procedure: Cell lines were cultured according to ATCC, JCRB and Sigma Aldrich recommendations.
Cells were then washed with cold PBS, aspirated and cold RIPA buffer containing a protease/phosphatase inhibitor cocktail was added to lyse cells. After centrifugation, the total protein concentrations of cell lysates were determined using the BCA protein assay. Samples were normalized for equivalent protein concentrations, 5× SDS-PAGE loading buffer added and denatured at 100° C. for 10 min. 20 μl of each sample/well was loaded on a SDS-PAGE gel and electrophoresed for 20 min at 80 V, then 120 V for 1.5 hr. Gels were then electroblotted to nitrocellulose membranes using a wet-transfer method at 250 mA for 2.5 hr. Membranes were incubated with blocking buffer for 1 hr and washed 3 times with TBST for 5 min. Membranes were then incubated with anti-KRAS (Sigma-Aldrich, #SAB1404011) and anti-β-Actin monoclonal antibodies (Cell Signaling Technology, #3700) diluted in blocking buffer at 4° C. overnight per the manufacturer's recommendations. After washing 3 times, blots were incubated with appropriately labeled secondary antibodies for 1 hr at room temperature and washed again. Fluorescence imaging and quantitation was performed using a LI-COR Odyssey. Results was analyzed using GraphPad Prism 7 software. Compound concentrations that induced KRAS degradation (DC50 and DCmax) were calculated using GraphPad Prism 7 software.

GP2D = test: CellTiter-Glo Reagent cancer cell line proliferation assay, GP2D; assay type: cell-based; conditions: Homo sapiens, KRAS(G12D) heterozygous, 24 hr
Description: (§1) The following cancer cell lines were employed: • AsPC-1 human pancreatic adenocarcinoma, homozygous KRAS(G12D), (ATCC, #CRL-1682); A-427 human lung carcinoma, heterozygous KRAS(G12D), (ATCC, #HTB-53); AGS human gastric adenocarcinoma, heterozygous KRAS(G12D), (ATCC, #CRL-1739); GP2D human colon adenocarcinoma, heterozygous KRAS(G12D), (Sigma Aldrich, 95090714); SW1990 human pancreatic adenocarcinoma, homozygous KRAS(G12D), (ATCC, #CRL2172); LU65A human lung giant cell carcinoma, heterozygous KRAS(G12C), (JCRB Cell Bank, #JCRB0054); NCIH727 human lung carcinoid, heterozygous KRAS(G12V), (ATCC, #CRL-5815); MKN1 human gastric adenosquamous carcinoma KRAS (wt), (JCRB Cell Bank, #JCRB0252). Cell lines were cultured according to ATCC, JCRB and Sigma Aldrich recommendations.
(§2) Cells were plated in 96-well tissue culture plates at 4,000 cells/well and incubated at 37° C./5% CO2 for 24 hr in 100 μl of media. 3-fold serial dilutions of each test compound were prepared ranging from 20 μM to 1.02 nM. Cells were then treated with test compounds at various concentrations with a final concentration of 0.5% DMSO/well, and then incubated at 37° C./5% CO2 for 24 hr. 100 μl of CellTiter-Glo® Reagent (Promega Corporation, Madison, WI) was added to each well and processed according manufacturer's protocol. Results were analyzed and IC50-values were calculated in GraphPad 7 software.

AGS = test: CellTiter-Glo Reagent cancer cell line proliferation assay, AGS; assay type: cell-based, human; conditions: Homo sapiens, 24 h, KRAS(G12D) heterozygous
Description: as §1, §2

MKN1 = test: CellTiter-Glo Reagent cancer cell line proliferation assay, MKN1; assay type: cell-based; conditions: Homo sapiens, MKN-1; MKN1, KRAS (wt), 24 hr
Description: as §1, §2

NCIH727 = test: CellTiter-Glo Reagent cancer cell line proliferation assay, NCIH727; assay type: cell-based, human; conditions: Homo sapiens, NCI-H727, 24 h, NCIH727, KRAS(G12V) heterozygous
Description: as §1, §2

LU65A = test: CellTiter-Glo Reagent cancer cell line proliferation assay, LU65A; assay type: cell-based, human; conditions: Homo sapiens, 24 h, KRAS(G12C) heterozygous
Description: as §1, §2

Chain of KRAS(G12D) (P01116 1-188 isoform P01116-2 G12D): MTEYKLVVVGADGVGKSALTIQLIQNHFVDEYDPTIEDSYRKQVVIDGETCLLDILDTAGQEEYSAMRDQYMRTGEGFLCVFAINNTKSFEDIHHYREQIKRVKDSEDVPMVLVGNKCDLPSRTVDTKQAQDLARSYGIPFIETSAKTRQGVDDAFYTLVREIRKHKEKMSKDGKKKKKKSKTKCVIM

IC50 (GP2D) [nM]	IC50 (AGS) [nM]	IC50 (MKN1) [nM]	IC50 (NCIH727) [nM]	IC50 (LU65A) [nM]	Structure (SMILES)	Dmax (KRAS(G12D)) [%]
100 to 1000	> 1000	–	–	–	[2H]C([2H])([2H])Oc1nc(-c2cc(O)cc3ccc(F)c(C#C)c23)c(F)c2nc(OCC3(CN4CCN(CC5CCN(c6ccc7c(c6)CN(C6CCC(=O)NC6=O)C7=O)CC5)CC4)CC3)nc(N3CC4CCC(C3)N4CC3CC3)c12 (centres unmarked) [Compound 99]	–
> 1000	> 1000	100 to 1000	> 1000	100 to 1000	C#Cc1c(F)ccc2cc(O)cc(-c3nc(OC)c4c(N5CCN(C(=O)CC#N)[C@@H](CC#N)C5)nc(OCC5(CN6CCN(CC7CCN(c8ccc9c(c8)CN(C8CCC(=O)NC8=O)C9=O)CC7)CC6)CC5)nc4c3F)c12 (some centres unmarked) [Compound 104]	–
> 1000	> 1000	100 to 1000	100 to 1000	< 100	C#Cc1c(F)ccc2cc(O)cc(-c3ncc4c(N5CC6CCC(C5)N6C(=O)[C@H](C)C#N)nc(OCC5(CN6CCN(CC7CCN(c8ccc9c(c8)CN(C8CCC(=O)NC8=O)C9=O)CC7)CC6)CC5)nc4c3F)c12 (some centres unmarked) [Compound 110]	–
100 to 1000	100 to 1000	100 to 1000	> 1000	100 to 1000	[2H]C([2H])([2H])Oc1nc(-c2cc(O)cc3ccc(F)c(C#C)c23)c(F)c2nc(OCC3(CN4CCN(CC5CCN(c6ccc7c(c6)CN(C6CCC(=O)NC6=O)C7=O)CC5)CC4)CC3)nc(N3CC4CCC(C3)N4C(=O)C(C)CC#N)c12 (centres unmarked) [Compound 116]	–
< 100	< 100	100 to 1000	< 100	< 100	C#Cc1c(F)ccc2cc(O)cc(-c3nc(OC)c4c(N5CC6CCC(C5)N6C(=O)CCC#N)nc(OCC5(CN6CCN(CC7CCN(c8ccc9c(c8)CN(C8CCC(=O)NC8=O)C9=O)CC7)CC6)CC5)nc4c3F)c12 (centres unmarked) [Compound 117]	–
–	–	< 100	–	< 100	C#Cc1c(F)ccc2cc(O)cc(-c3nc(OC)c4c(N5CCN(C(=O)C=C)[C@@H](CC#N)C5)nc(OCC5(CN6CCN(CC7CCN(c8ccc9c(c8)CN(C8CCC(=O)NC8=O)C9=O)CC7)CC6)CC5)nc4c3F)c12 (some centres unmarked) [Compound 125]	–
–	< 100	–	< 100	< 100	C#Cc1c(F)ccc2cc(O)cc(-c3nc(OC)c4c(N5CC6CCC(C5)N6C(=O)CC(C)C#N)nc(OCC5(CN6CCN(C[C@H]7CCN(c8ccc9c(c8)CN(C8CCC(=O)NC8=O)C9=O)C[C@@H]7F)CC6)CC5)nc4c3F)c12 (some centres unmarked) [Compound 154]	–
–	< 100	–	< 100	< 100	C#Cc1c(F)ccc2cc(O)cc(-c3nc(OC)c4c(N5CCCOC6CC65)nc(OCC5(CN6CCN(CC7CCN(c8ccc9c(c8)CN(C8CCC(=O)NC8=O)C9=O)CC7)CC6)CC5)nc4c3F)c12 (centres unmarked) [Compound 157]	–
–	< 100	–	< 100	< 100	C#Cc1c(F)ccc2cc(O)cc(-c3nc4c5c(nc(OCC6(CN7CCN(CC8CCN(c9ccc%10c(c9)CN(C9CCC(=O)NC9=O)C%10=O)CC8)CC7)CC6)nc5c3F)N(CC(F)F)[C@@H](C)CO4)c12 (some centres unmarked) [Compound 158]	–
–	< 100	–	< 100	< 100	C#Cc1c(F)ccc2cc(O)cc(-c3nc(OC)c4c(N5CC6CCC(C5)N6C(=O)CCC#N)nc(OCC5(CN6CCN(CC7CCN(c8ccc9c(N%10CCC(=O)NC%10=O)nn(C)c9c8)CC7)CC6)CC5)nc4c3F)c12 [Compound 159]	–
–	< 100	–	< 100	< 100	C#Cc1c(F)ccc2cc(O)cc(-c3nc(OC)c4c(N5CC6CCC(C5)N6C(=O)CC(C)C#N)nc(OCC5(CN6CCC(CN7CCC(c8ccc9c(c8)CN(C8CCC(=O)NC8=O)C9=O)C(F)(F)C7)CC6)CC5)nc4c3F)c12 (centres unmarked) [Compound 161]	–
–	< 100	–	< 100	< 100	C#Cc1c(F)ccc2cc(O)cc(-c3nc(OC)c4c(N5CCCO[C@H]6C[C@H]65)nc(OCC5(CN6CCN(CC7CCN(c8ccc9c(c8)CN(C8CCC(=O)NC8=O)C9=O)CC7)CC6)CC5)nc4c3F)c12 (some centres unmarked) [Compound 164]	–
–	< 100	–	< 100	< 100	C#Cc1c(F)ccc2cc(O)cc(-c3nc(OC)c4c(N5CCCO[C@@H]6C[C@@H]65)nc(OCC5(CN6CCN(CC7CCN(c8ccc9c(c8)CN([C@H]8CCC(=O)NC8=O)C9=O)CC7)CC6)CC5)nc4c3F)c12 [Compound 165]	–

Continued, compound first:

Structure (SMILES)	IC50 (GP2D) [nM]	IC50 (AGS) [nM]	IC50 (MKN1) [nM]	IC50 (NCIH727) [nM]	IC50 (LU65A) [nM]	Dmax (KRAS(G12D)) [%]
C#Cc1cccc2cc(O)cc(-c3ncc4c(N5CC6CCC(C5)N6)nc(OCC5(CN6CCN(CC7CCN(CC(=O)N[C@@H](C(=O)N8C[C@@H](O)C[C@@H]8C(=O)NCc8ccc(-c9scnc9C)cc8)C(C)(C)C)CC7)CC6)CC5)nc4c3F)c12 [Compound 52]	–	–	–	–	–	> 50
C#Cc1c(F)ccc2cc(O)cc(-c3ncc4c(N5CC6CCC(C5)N6)nc(OCC5(CN6CCC(N7CCC(c8ccc9c(c8)CN(C8CCC(=O)NC8=O)C9=O)CC7)CC6)CC5)nc4c3F)c12 (centres unmarked) [Compound 77]	–	–	–	–	–	> 50
C#Cc1c(F)ccc2cc(O)cc(-c3nc(OC)c4c(N5CC6CCC(C5)N6)nc(OCC5(CN6CCN(C7CCN(c8ccc9c(c8)CN(C8CCC(=O)NC8=O)C9=O)CC7)CC6)CC5)nc4c3F)c12 (centres unmarked) [Compound 82]	–	–	–	–	–	> 50
C#Cc1c(F)ccc2cc(O)cc(-c3ncc4c(N5C[C@H]6CC[C@@H](C5)N6)nc(OCC5(CN6CCC(CN7CCC(c8ccc9c(c8)CN(C8CCC(=O)NC8=O)C9=O)C(F)(F)C7)CC6)CC5)nc4c3F)c12 (stereo partly drawn) [Compound 93, 3-(5-(1-((1-((1-(((4-((1R,5S)-3,8-diazabicyclo[3.2.1]octan-3-yl)-7-(8-ethynyl-7-fluoro-3-hydroxynaphthalen-1-yl)-8-fluoropyrido[4,3-d]pyrimidin-2-yl)oxy)methyl)cyclopropyl)methyl)piperidin-4-yl)methyl)-3,3-difluoropiperidin-4-yl)-1-oxoisoindolin-2-yl) piperidine-2,6-dione]	< 100	< 100	–	–	–	–
N#CCCC(=O)N1C2CCC1CN(c1nc(OCC3(CN4CCN(CC5CCN(c6ccc7c(c6)CN(C6CCC(=O)NC6=O)C7=O)CC5)CC4)CC3)nc3c(F)c(-c4cc(N)cc(Cl)c4C(F)(F)F)c(Cl)cc13)C2 (centres unmarked) [Compound 153]	–	< 100	–	< 100	< 100	–
N#Cc1c(N)sc2c1C1(CCC2)CCCc2c(-c3nc(Cl)cc(OCC4(CN5CCN(CC6CCN(c7ccc8c(c7)CN(C7CCC(=O)NC7=O)C8=O)CC6)CC5)CC4)n3)noc21 (centres unmarked) [Compound 156]	–	< 100	–	< 100	< 100	–
C#Cc1c(F)ccc2cc(O)cc(-c3nc(OC)c4c(N5CC6CCC(C5)N6C(=O)C[C@@H](C)C#N)nc(OCC5(CN6CCN(CC7CCN(c8ccc9c(N%10CCC(=O)NC%10=O)nn(C)c9c8)CC7)CC6)CC5)nc4c3F)c12 [Compound 160]	–	< 100	–	< 100	< 100	–
C#Cc1c(F)ccc2cc(O)cc(-c3nc(OC)c4c(N5CC6CCC(C5)N6C(=O)C[C@@H](C)C#N)nc(OCC5(CN6CCN(CN7CCC(N8Cc9cc%10c(cc9C8)C(=O)N(C8CCC(=O)NC8=O)C%10)CC7)CC6)CC5)nc4c3F)c12 (some centres unmarked) [Compound 162]	–	< 100	–	< 100	< 100	–
C#Cc1c(F)ccc2cc(O)cc(-c3nc(OC)c4c(N5CC6CCC(C5)N6C(=O)CCC#N)nc(OCC5(CN6CCC(CN7CCC(N8Cc9cc%10c(cc9C8)C(=O)N(C8CCC(=O)NC8=O)C%10)CC7)CC6)CC5)nc4c3F)c12 (centres unmarked) [Compound 163]	–	< 100	–	< 100	< 100	–
